Reference: PMC10783034, “Pharmacokinetic and pharmacodynamic evaluation of the atypical tetracyclines chelocardin and amidochelocardin in murine infection models” (Microbiology Spectrum, 2023)
Converted amounts (≈) assume the structure as drawn.

How the values were obtained:
E. coli C175-94 = test: Ascending urinary tract infection model in OF-1 mice; assay type: in vivo; details: for bacterial burden in urine: CHD/CDCHD 12 mg/kg SC BID on day 1 and 2 post-inoculation; for bacterial burden in urine / bacterial burden in kidneys / bacterial burden in the bladder: day 3, vs vehicle; for animals with sterile kidneys / bacterial burden in kidneys / bacterial burden in the bladder: CHD/CDCHD 12 mg/kg SC BID, gentamicin 100 mg/kg SC BID; for animals with sterile kidneys: control animals 23.8%
Experimental: The model was conducted as described previously ([27], [60]). In brief, n = 21 animals were used per group in the main study, and n = 3 animals per group in satellite groups for histopathological analysis. Three days before the start of the study and during the study, mice had free access to 5% glucose as drinking water. Fresh overnight colonies of E. coli from a 5% horse blood agar plate were suspended in PBS pH 7.4 to approximately 10^9 cfu/mL. Approximately 1 hour before inoculation, mice were treated orally with […] Nurofen (20 mg ibuprofen/mL corresponding to approximately 30 mg/kg) as a pain relief. Urine was removed from the bladder by gently pressing the abdomen and mice were anaesthetized with 0.15 mL Zoletil mix SC. Thereafter, the mice were inoculated. A syringe with a catheter, containing the bacterial suspension was inserted via the urethra into the bladder and 50 µL of the inoculum was slowly injected into the bladder. Hereafter, the mouse was placed in the cage and kept in a warming cabinet until fully awake (approximately 4 hours). The mice were treated with CHD (12 mg/kg SC BID), CDCHD (12 mg/kg SC BID), gentamicin (100 mg/kg SC BID), or vehicle BID (2nd dose was administered approximately 6 hours after the 1st dose on each day) on day 1, that is, first dose around 24 hours post-infection, and day 2 post-inoculation. The mice were observed during the study and scored based on their behavior and clinical signs. Clinical scoring comprised assessment of piloerection in the skin, activity (movement, curiosity), and appearance of eyes. The scoring range comprised 0–4. In our model, a maximum score of 1; thus, only mild discomfort was observed. On day 3 post-inoculation and after sampling urine, mice were euthanized by cervical dislocation, and bladder and kidneys were removed from 21 mice in each treatment group aseptically for cfu determination. The bladder and kidneys were stored at −80°C and later homogenized in 0.5 or 1 mL saline, respectively. Colony counts of urine were determined immediately. From the three additional mice in each treatment group (satellite groups), urine and plasma were sampled and frozen at −80°C, and bladders, kidneys, and liver were collected in 4% buffered formalin. Cfu was determined in urine samples within 2–3 hours after sampling. Frozen organs were thawed and homogenized with steel beads using a tissue lyser. All samples, urine, kidney, and bladder, were 10-fold diluted in saline and 20 µL spots were applied on blue agar plates in duplicates. In addition, undiluted samples of urine (2–100 μL depending on the available amount of urine) were spread on a separate agar plate to determine the colony counts at the lowest possible detection level. All agar plates were incubated for 18–22 hours at 35°C in ambient air.
For the neutropenic thigh infection model with E. coli ATCC 25922, the thighs were regarded as two independent infection sites throughout the experiment. For statistical analysis, individual thighs (left and right) were treated as separate samples although these were not completely independent values. For the neutropenic thigh infection model with K. pneumoniae ATCC 43816, the individual thighs (left and right) were treated as one sample. For the efficacy models, the non-parametric Kruskal-Wallis test was used with GraphPad Prism 9.4.1. For the ascending urinary tract infection model, an ordinary one-way ANOVA with Dunnett’s multiple comparison test was used with GraphPad Prism 9.4.1.

E. faecium DSM-20477 = test: MIC determination; assay type: cell-based; details: TSB medium
Experimental: (§1) The assay was conducted as described previously ([54]) with the following modifications. The MIC was tested against the K. pneumoniae strain ATCC 43816 in an MHB (not cation-adjusted) medium. CHD and CDCHD were tested in concentrations ranging from 0.078 to 10 µg/mL. Moreover, the MIC was determined for the following strains: K. pneumoniae DSM-30104, E. faecium DSM-20477, S. aureus DSM-346, P. aeruginosa DSM-11128, A. baumannii DSM-30008, E. aerogenes DSM-30053, E. coli ATCC 25922, and E. coli C175-94. All strains were grown in MHB medium, except for E. faecium, which was grown in TSB. CHD, epi-CDH, and CDCHD were tested in concentrations ranging from 0.125 to 64 µg/mL as described previously ([19]).

E. aerogenes DSM-30053 = test: MIC determination; assay type: cell-based; details: MHB medium
Experimental: as §1

SMILES	bacterial burden in urine (E. coli C175-94)	animals with sterile kidneys (E. coli C175-94) [%]	bacterial burden in kidneys (E. coli C175-94)	bacterial burden in the bladder (E. coli C175-94)	MIC (E. faecium DSM-20477) [µg/mL]	MIC (E. aerogenes DSM-30053) [µg/mL]
Cc1ccc2c(C)c3c(c(O)c2c1O)C(=O)C1(O)C(=O)C(C(N)=O)=C(O)C(N)C1C3 (stereo not drawn) [CDCHD, 2-carboxamido-2-deacetyl-chelocardin]	reduced bacterial burden in urine significantly	61.9	strong and significant reduction	significant reduction compared to vehicle control	2 (≈ 4.85 µM)	8 (≈ 19.4 µM)
CC(=O)C1=C(O)[C@H](N)[C@@H]2Cc3c(c(O)c4c(O)c(C)ccc4c3C)C(=O)[C@]2(O)C1=O [CHD, chelocardin]	reduced bacterial burden in urine significantly	38.1	slight, non-significant effect	significant reduction compared to vehicle control	4 (≈ 9.72 µM)	32 (≈ 77.8 µM)
